{
  "source": "patent US20220167645A1",
  "about": "“METHODS OF IMPROVING FISH FEED CONVERSION RATE AND SURVIVAL” (AQUINOVO LTD., priority 2019, published 2022)",
  "assay_type_in_all_cases": "in vivo",
  "key": {"Tilapia fish [1]": {"tested_on": "Tilapia fish", "experiment": "Experiment #2: tilapia fed AN6-coated feed 60-150 dph (growth, biomass, FCR, intestine weight)", "method": "MeM (powder, manufactured by Bern Aqua), Nanolis P1, P2 (pellet sizes of 0.8-1 mm, 1-1.5 mm, respectively, manufactured by Ocialis) and Tilaphi 1, 2 & 3 (pellet sizes of 1-1.5 mm, 2 mm, 3-5.5 mm, respectively, manufactured by Ocialis) were used as basic regular feed. The basic feed was coated according to the following general procedure: 9 ml or 3 ml of Tris-HCl solution (50 mM, pH=8.8) were diluted to 60 ml with distilled H2O. For AN6-containing feed preparation, desired amounts of AN6 peptide (a TK antagonist having the sequence Succ-Asp-Ser-D-Trp—N(Me)Val-βAla-Leu-Met-NH2, SEQ ID NO. 6) were dissolved in the Tris-HCl solution. Then, each of the various solutions was mixed with 3 Kg of basic feed pellets using an electric mixer. The peptide-feed mixtures where then dried either in oven at 40° C. for 24 hours or in drying drum for few hours to form coated pellets. The total amount of each feed was 3 Kg.\nTilapia fish (n=1440) have been raised from day 60 to day 119 post-hatch in indoor tanks and then transferred to outdoor tanks (120-150 dph) followed by cages in ponds (150-243 dph). The fish were fed to apparent satiation 2-4 times a day, for 90 days (60-150 dph) either with regular feed (Feed A, Group C, n=60 in 8 repeats); feed coated with AN6 peptide solution in ratio of 5 mg AN6/Kg feed (5 ppm, Feed B, Group D, n=60 in 8 repeats); or feed coated with AN6 peptide solution in ratio of 10 mg AN6/Kg feed (Feed C, Group E, n=60 in 8 repeats).\nDuring the experimental period, the average fish weight was measured, and the daily growth rate was calculated by dividing the average weight gained in each measuring period by the number of days since the last measurement. […] However, from age 200 dph, a considerable jump in fish performance and FCR was observed, reaching a maximal level at the last measurement point (243 dph, +8.4% average weight, +18% weight gain, +10% total biomass; FIG. 1, experiment #2 and FIG. 3B). The effect on growth was evident even when considering differences in initial body weight (FIG. 2B).\nIn order to determine the efficiency of feed conversion into fish substance in experiments (#1, #2, #3), FCR values which reflect the amount of feed needed to grow a kilogram fish, were calculated for each period and for the entire fish growth period. In order to determine the amount of consumed feed, the amount of feed provided was measured daily for each tank and the leftovers were collected, weighted and subtracted from the total amount of feed. Dead fish were removed every day before each feeding and then counted and weighed for accurate calculation of feed intake and FCR. It is to be noted that high mortality can still influence FCR values since feed eaten by fish that have later died cannot be subtracted from the total feed consumed and on the other hand periodic total fish weight gained is underestimated (dead fish are not included). Three FCR values were calculated according to the following formulas:\nAt the end of the experiment described in example 3 (experiment #2), 6 fish from each cage/tank (3 females and 3 males, n=24 per treatment group) were sacrificed and whole intestine was removed and weighted."}, "Tilapia fish [2]": {"tested_on": "Tilapia fish", "experiment": "Experiment #2: tilapia fed AN6-coated feed 60-150 dph (growth, biomass, FCR, intestine weight)", "conditions": "5 mgAN6/Kg feed from 60 dph for 150 days"}, "Tilapia fish [3]": {"tested_on": "Tilapia fish", "source_text": "At the end of each of the experiments described in examples 2, 3 and 5 (#1, #2, #3), a sample of fish from each treatment group was sacrificed and dissected for measurements of internal parts as indicated in Table 9."}, "Tilapia fish [4]": {"tested_on": "Tilapia fish", "experiment": "Experiment #1: tilapia fed AN6-coated feed in two phases (growth, biomass, mortality, FCR)", "conditions": "second phase, adult fish 195-263 dph; 50 days of 30 mg AN6/Kg feed; compared to control"}, "[5]": {"conditions": "10 mg/Kg feed, Group E, last measurement point 243 dph, vs control"}, "[6]": {"conditions": "10 ppm AN6, experiments 2 & 3, vs control"}},
  "note": "Numbered stars: 1 amine (or outer) side, 2 acyl side, 3 side chain; on linkers, the order of the positions; unused ones are H or OH. Square brackets hold non-standard residues; d marks the D form. Suc = O=C(CCC(=O)[*:2])[*:1]; NMeV = CN[C@H](C(=O)O)C(C)C; βAla = NCCC(=O)O",
  "data": [
    {"substance": "Succ-Asp-Ser- D-Trp -N(Me)Val-βAla-Leu-Met-NH2 (Suc-DS[dW][NMeV][βAla]LM-NH2; SMILES CSCC[C@H](NC(=O)[C@H](CC(C)C)NC(=O)CCNC(=O)[C@H](C(C)C)N(C)C(=O)[C@@H](Cc1c[nH]c2ccccc12)NC(=O)[C@H](CO)NC(=O)[C@H](CC(=O)O)NC(=O)CCC(=O)O)C(N)=O) [AN6]", "values": [
      {"measurement": "increase in fish average weight and growth rate", "setting": "Tilapia fish [1]; 10 mg/Kg feed, Group E (fed 60-150 dph), age 95 to 165 dph, vs control", "result": "~+3%"},
      {"measurement": "average weight", "setting": "Tilapia fish [1]; [5]", "result": "+8.4%"},
      {"measurement": "total biomass", "setting": "Tilapia fish [1]; [5]", "result": "+10%"},
      {"measurement": "weight gain", "setting": "Tilapia fish [1]; [5]", "result": "+18%"},
      {"measurement": "number of fish in the upper 6.5th decile", "setting": "Tilapia fish [1]; 10 mgAN6/Kg feed, Group E (control 2.8%)", "result": 7.2, "unit": "%"},
      {"measurement": "number of fish in the lower 2th decile", "setting": "Tilapia fish [1]; 10 mgAN6/Kg feed, Group E (control 18.4%)", "result": 13.2, "unit": "%"},
      {"measurement": "weight gain of male and female populations analysed separately", "setting": "Tilapia fish [1]; FIG. 4, 5 and 10 mg/Kg for 90 days (60-150 dph)", "result": "better performance than control"},
      {"measurement": "ratio between intestine weight and fish weight (ISI)", "setting": "Tilapia fish [1]; male fish treated with 10 mg AN6/Kg feed, end of experiment #2, vs control, FIG. 6", "result": "+21%"},
      {"measurement": "FCR", "setting": "Tilapia fish [2]", "result": "improved FCR significantly"},
      {"measurement": "growth", "setting": "Tilapia fish [2]", "result": "not sufficient to improved growth"},
      {"measurement": "female fillet ratio", "setting": "Tilapia fish [3]; [6]", "result": "+3.38%"},
      {"measurement": "male fillet ratio", "setting": "Tilapia fish [3]; [6]", "result": "+5.6%"},
      {"measurement": "gonad size and histology", "setting": "Tilapia fish [3]; in vivo", "result": "No significant effect"},
      {"measurement": "kidney, liver and fat weight and rates", "setting": "Tilapia fish [3]; in vivo", "result": "no effect"},
      {"measurement": "increase in average fish weight", "setting": "Tilapia fish [4]", "result": "+6.84%"},
      {"measurement": "increase in average weight gained", "setting": "Tilapia fish [4]", "result": "+13%"}
    ]}
  ]
}
